Data: US20090018111A1, “Novel Antimicrobial Medicament” (priority 2004, published 2009)

What was measured:
Experiment in all cases: Sensitivity test (agar dilution), clinical isolate
Format in all cases: cell-based, Serratia marcescens
S. marcescens 14424 = test system: S. marcescens 14424
Protocol: (§1) In addition, the antibacterial activities were tested against strains which are comparatively less sensitive to β-lactam compounds, namely clinically isolated 13 strains of Acinetobacter calcoaceticus and Acinetobacter lwoffi, clinically isolated 11 strains of Serratia marcescens, clinically isolated 12 strains of Burkholderia cepacia, and clinically isolated 15 strains of Pseudomonas aeruginosa.
(§2) According to the standard method of Japan Chemotherapeutic Society (Chemotherapy, vol. […], p 76-79 (1981)) the test was carried out using the agar dilution method. After dissolving test samples in distilled water, agar medium containing the test samples was prepared in such a manner that the final concentration became twice serial dilution by pouring serially diluted combination drug solution or a single drug solution into agar medium. As agar medium was used Mueller Hinton Agar medium (MHA). Then, each strain was cultivated over night at 37° C. in an incubator and suspended in buffered saline solution with gelatin (BSG) in the concentration of about 10^6 CFU/ml. The suspension (about 5 μl) containing test strains was inoculated to the medium containing the test samples by Micro Planter.
(§3) Each drug was weighed, and dissolved in distilled water to give a test sample. When the drugs are used in combination, two kinds of solution containing each drug were mixed so as to be various ratio of concentration to give a mixed solution. When the sample is subjected to sensitivity test, this mixed solution was diluted by twice serial dilution method.
(§4) Furthermore, when the drug is solely used, each test sample was used as it is, and diluted by twice serial dilution method from the maximum concentration to the minimum concentration.

S. marcescens 2054522 = test system: S. marcescens 2054522
Protocol: as §1, §2, §3, §4

S. marcescens 2012884 = test system: S. marcescens 2012884
Protocol: as §1, §2, §3, §4

S. marcescens 14981 = test system: S. marcescens 14981
Protocol: as §1, §2, §3, §4

S. marcescens 7138 = test system: S. marcescens 7138
Protocol: as §1, §2, §3, §4

S. marcescens 14425 = test system: S. marcescens 14425
Protocol: as §1, §2, §3, §4

S. marcescens 1928513 = test system: S. marcescens 1928513
Protocol: as §1, §2, §3, §4

S. marcescens 7155 = test system: S. marcescens 7155
Protocol: as §1, §2, §3, §4

S. marcescens 14991 = test system: S. marcescens 14991
Protocol: as §1, §2, §3, §4

S. marcescens 14689 = test system: S. marcescens 14689
Protocol: as §1, §2, §3, §4

[1] = Serratia marcescens, 14424, Concomitant (ME:SM = 1:1)
[2] = Serratia marcescens, 14424, Concomitant (ME:SM = 1:2)
[3] = Serratia marcescens, 14424, Concomitant (ME:SM = 1:4)
[4] = Serratia marcescens, 14424, Concomitant (ME:SM = 2:1)
[5] = Serratia marcescens, 14424, alone
[6] = Serratia marcescens, 2054522, Concomitant (ME:SM = 1:1)
[7] = Serratia marcescens, 2054522, Concomitant (ME:SM = 1:2)
[8] = Serratia marcescens, 2054522, Concomitant (ME:SM = 1:4)
[9] = Serratia marcescens, 2054522, Concomitant (ME:SM = 2:1)
[10] = Serratia marcescens, 2054522, alone
[11] = Serratia marcescens, 2012884, Concomitant (ME:SM = 1:1)
[12] = Serratia marcescens, 2012884, Concomitant (ME:SM = 1:2)
[13] = Serratia marcescens, 2012884, Concomitant (ME:SM = 1:4)
[14] = Serratia marcescens, 2012884, Concomitant (ME:SM = 2:1)
[15] = Serratia marcescens, 2012884, alone
[16] = Serratia marcescens, 14981, Concomitant (ME:SM = 1:1)
[17] = Serratia marcescens, 14981, Concomitant (ME:SM = 1:2)
[18] = Serratia marcescens, 14981, Concomitant (ME:SM = 1:4)
[19] = Serratia marcescens, 14981, Concomitant (ME:SM = 2:1)
[20] = Serratia marcescens, 14981, alone
[21] = Serratia marcescens, 7138, Concomitant (ME:SM = 1:1)
[22] = Serratia marcescens, 7138, Concomitant (ME:SM = 1:2)
[23] = Serratia marcescens, 7138, Concomitant (ME:SM = 1:4)
[24] = Serratia marcescens, 7138, Concomitant (ME:SM = 2:1)
[25] = Serratia marcescens, 7138, alone
[26] = Serratia marcescens, 14425, Concomitant (ME:SM = 1:1)
[27] = Serratia marcescens, 14425, Concomitant (ME:SM = 1:2)
[28] = Serratia marcescens, 14425, Concomitant (ME:SM = 1:4)
[29] = Serratia marcescens, 14425, Concomitant (ME:SM = 2:1)
[30] = Serratia marcescens, 14425, alone
[31] = Serratia marcescens, 1928513, Concomitant (ME:SM = 1:1)
[32] = Serratia marcescens, 1928513, Concomitant (ME:SM = 1:2)
[33] = Serratia marcescens, 1928513, Concomitant (ME:SM = 1:4)
[34] = Serratia marcescens, 1928513, Concomitant (ME:SM = 2:1)
[35] = Serratia marcescens, 1928513, alone
[36] = Serratia marcescens, 7155, Concomitant (ME:SM = 1:1)
[37] = Serratia marcescens, 7155, Concomitant (ME:SM = 1:2)
[38] = Serratia marcescens, 7155, Concomitant (ME:SM = 1:4)
[39] = Serratia marcescens, 7155, Concomitant (ME:SM = 2:1)
[40] = Serratia marcescens, 7155, alone
[41] = Serratia marcescens, 14991, Concomitant (ME:SM = 1:1)
[42] = Serratia marcescens, 14991, Concomitant (ME:SM = 1:2)
[43] = Serratia marcescens, 14991, Concomitant (ME:SM = 1:4)
[44] = Serratia marcescens, 14991, Concomitant (ME:SM = 2:1)
[45] = Serratia marcescens, 14991, alone
[46] = Serratia marcescens, 14689, Concomitant (ME:SM = 1:1)
[47] = Serratia marcescens, 14689, Concomitant (ME:SM = 1:2)
[48] = Serratia marcescens, 14689, Concomitant (ME:SM = 1:4)
[49] = Serratia marcescens, 14689, Concomitant (ME:SM = 2:1)
[50] = Serratia marcescens, 14689, alone

Work on `C[C@@H](O)[C@H]1C(=O)N2C(C(=O)O)=C(S[C@@H]3CN[C@H](C(=O)N(C)C)C3)[C@H](C)[C@H]12` [MEPM, meropenem] yielded an MIC (S. marcescens 14424; [1]) of 8 µg/mL, an MIC (S. marcescens 14424; [2]) of 2 µg/mL and an MIC (S. marcescens 14424; [3]) of 2 µg/mL. For the same compound, the MIC (S. marcescens 14424; [4]) was 4 µg/mL, the MIC (S. marcescens 14424; [5]) was 4 µg/mL and the MIC (S. marcescens 2054522; [6]) was 1 µg/mL. It also gave an MIC (S. marcescens 2054522; [7]) of 0.5 µg/mL, an MIC (S. marcescens 2054522; [8]) of 0.5 µg/mL and an MIC (S. marcescens 2054522; [9]) of 1 µg/mL. It also gave an MIC (S. marcescens 2054522; [10]) of 1 µg/mL, an MIC (S. marcescens 2012884; [11]) of 2 µg/mL and an MIC (S. marcescens 2012884; [12]) of 2 µg/mL. For the same compound, the MIC (S. marcescens 2012884; [13]) was 1 µg/mL, the MIC (S. marcescens 2012884; [14]) was 4 µg/mL and the MIC (S. marcescens 2012884; [15]) was 4 µg/mL. For the same compound, the MIC (S. marcescens 14981; [16]) was 1 µg/mL, the MIC (S. marcescens 14981; [17]) was 0.5 µg/mL and the MIC (S. marcescens 14981; [18]) was 0.5 µg/mL. It also gave an MIC (S. marcescens 14981; [19]) of 1 µg/mL, an MIC (S. marcescens 14981; [20]) of 1 µg/mL and an MIC (S. marcescens 7138; [21]) of 2 µg/mL. For the same compound, the MIC (S. marcescens 7138; [22]) was 1 µg/mL, the MIC (S. marcescens 7138; [23]) was 0.5 µg/mL and the MIC (S. marcescens 7138; [24]) was 2 µg/mL. The MIC (S. marcescens 7138; [25]) was 2 µg/mL, the MIC (S. marcescens 14425; [26]) was 0.031 µg/mL and the MIC (S. marcescens 14425; [27]) was 0.031 µg/mL. The MIC (S. marcescens 14425; [28]) was 0.031 µg/mL, the MIC (S. marcescens 14425; [29]) was 0.031 µg/mL and the MIC (S. marcescens 14425; [30]) was 0.031 µg/mL. For the same compound, the MIC (S. marcescens 1928513; [31]) was 1 µg/mL, the MIC (S. marcescens 1928513; [32]) was 0.5 µg/mL and the MIC (S. marcescens 1928513; [33]) was 0.5 µg/mL. For the same compound, the MIC (S. marcescens 1928513; [34]) was 1 µg/mL, the MIC (S. marcescens 1928513; [35]) was 1 µg/mL and the MIC (S. marcescens 7155; [36]) was 2 µg/mL. The MIC (S. marcescens 7155; [37]) was 1 µg/mL, the MIC (S. marcescens 7155; [38]) was 0.5 µg/mL and the MIC (S. marcescens 7155; [39]) was 2 µg/mL. The MIC (S. marcescens 7155; [40]) was 2 µg/mL, the MIC (S. marcescens 14991; [41]) was 2 µg/mL and the MIC (S. marcescens 14991; [42]) was 1 µg/mL. The MIC (S. marcescens 14991; [43]) was 1 µg/mL, the MIC (S. marcescens 14991; [44]) was 1 µg/mL and the MIC (S. marcescens 14991; [45]) was 1 µg/mL. For the same compound, the MIC (S. marcescens 14689; [46]) was 2 µg/mL, the MIC (S. marcescens 14689; [47]) was 2 µg/mL and the MIC (S. marcescens 14689; [48]) was 2 µg/mL. For the same compound, the MIC (S. marcescens 14689; [49]) was 4 µg/mL and the MIC (S. marcescens 14689; [50]) was 4 µg/mL.

Work on `C[C@H]1C=C(c2csc(SC3=C(C(=O)O)N4C(=O)[C@H]([C@@H](C)O)[C@H]4[C@H]3C)n2)CN1` [SM, (4R,5S,6S)-6-[(1R)-1-Hydroxyethyl]-4-methyl-3-({4-[(5S)-5-methyl-2,5-dihydro-1H-pyrrol-3-yl]-1,3-thiazol-2-yl}sulfanyl)-7-oxo-1-azabicyclo[3.2.0]hept-2-ene-2-carboxylic acid] yielded an MIC (S. marcescens 14424; [1]) of 8 µg/mL, an MIC (S. marcescens 14424; [2]) of 4 µg/mL and an MIC (S. marcescens 14424; [3]) of 8 µg/mL. The MIC (S. marcescens 14424; [4]) was 2 µg/mL, the MIC (S. marcescens 14424; [5]) was 16 µg/mL and the MIC (S. marcescens 2054522; [6]) was 1 µg/mL. For the same compound, the MIC (S. marcescens 2054522; [7]) was 1 µg/mL, the MIC (S. marcescens 2054522; [8]) was 2 µg/mL and the MIC (S. marcescens 2054522; [9]) was 0.5 µg/mL. It also gave an MIC (S. marcescens 2054522; [10]) of 8 µg/mL, an MIC (S. marcescens 2012884; [11]) of 2 µg/mL and an MIC (S. marcescens 2012884; [12]) of 4 µg/mL. The MIC (S. marcescens 2012884; [13]) was 4 µg/mL, the MIC (S. marcescens 2012884; [14]) was 2 µg/mL and the MIC (S. marcescens 2012884; [15]) was 8 µg/mL. The MIC (S. marcescens 14981; [16]) was 1 µg/mL, the MIC (S. marcescens 14981; [17]) was 1 µg/mL and the MIC (S. marcescens 14981; [18]) was 2 µg/mL. The MIC (S. marcescens 14981; [19]) was 0.5 µg/mL, the MIC (S. marcescens 14981; [20]) was 8 µg/mL and the MIC (S. marcescens 7138; [21]) was 2 µg/mL. For the same compound, the MIC (S. marcescens 7138; [22]) was 2 µg/mL, the MIC (S. marcescens 7138; [23]) was 2 µg/mL and the MIC (S. marcescens 7138; [24]) was 1 µg/mL. The MIC (S. marcescens 7138; [25]) was 8 µg/mL, the MIC (S. marcescens 14425; [26]) was 0.031 µg/mL and the MIC (S. marcescens 14425; [27]) was 0.063 µg/mL. It also gave an MIC (S. marcescens 14425; [28]) of 0.125 µg/mL, an MIC (S. marcescens 14425; [29]) of 0.016 µg/mL and an MIC (S. marcescens 14425; [30]) of 2 µg/mL. It also gave an MIC (S. marcescens 1928513; [31]) of 1 µg/mL, an MIC (S. marcescens 1928513; [32]) of 1 µg/mL and an MIC (S. marcescens 1928513; [33]) of 2 µg/mL. It also gave an MIC (S. marcescens 1928513; [34]) of 0.5 µg/mL, an MIC (S. marcescens 1928513; [35]) of 8 µg/mL and an MIC (S. marcescens 7155; [36]) of 2 µg/mL. It also gave an MIC (S. marcescens 7155; [37]) of 2 µg/mL, an MIC (S. marcescens 7155; [38]) of 2 µg/mL and an MIC (S. marcescens 7155; [39]) of 1 µg/mL. It also gave an MIC (S. marcescens 7155; [40]) of 8 µg/mL, an MIC (S. marcescens 14991; [41]) of 2 µg/mL and an MIC (S. marcescens 14991; [42]) of 2 µg/mL. It also gave an MIC (S. marcescens 14991; [43]) of 4 µg/mL, an MIC (S. marcescens 14991; [44]) of 0.5 µg/mL and an MIC (S. marcescens 14991; [45]) of 32 µg/mL. The MIC (S. marcescens 14689; [46]) was 2 µg/mL, the MIC (S. marcescens 14689; [47]) was 4 µg/mL and the MIC (S. marcescens 14689; [48]) was 8 µg/mL. For the same compound, the MIC (S. marcescens 14689; [49]) was 2 µg/mL and the MIC (S. marcescens 14689; [50]) was 32 µg/mL.
